Experimental findings from patent US20160067211A1, “PHARMACEUTICAL COMPOSITION” (Eberhard Karls Universitaet Tuebingen Medizinische Fakultaet, priority 2013, published 2016) are described below.

The subject of data set [1] is foreskin melanocytes (HEM1). The data set can be described thus: MUH proliferation assay, melanocytes. Format: cell-based. To be noted: 6-PN, 8-PN at higher concentrations (0.1 μM to 100 μM tested); TSA, SAHA 100 μM. Here is the method: FIG. 5: real time cell monitoring of BLM and SK-MEL-28 melanoma cells treated with 6-PN and 8-PN. (A) BML and SK-MEL-28 cells were treated 24 hours after seeding with different concentrations of 6-PN and 8-PN (20 μM, 50 μM and 100 μM) over a 104 hour time period. The cellular impedance was measured over the entire observation time using the xCELLigence™ SP system and is depicted by the cell index (CI). All CI-values were normalized shortly before the treatment started. […] As a positive control, Triton X-100 0.1% was used to induce cell death. Shown are the mean±SD of three independent experiments, each performed in triplicates (B, C). […] Shown are the mean±SD; the experiments were performed in quadruplicates. (D) The MUH proliferation assay was repeated unter the same treatment conditions on primary human fibroblasts (FF868) and melanocytes (HEM1).
The cells were seeded in triplicates in 96-well plates at a density of 2,500 cells per well in 50 μl medium (5×10^4 cells per milliliter). After 24 hours, the medium was replaced by medium containing 6-PN, 8-PN (dissolved in DMSO), TSA (dissolved in EtOH) or SAHA (dissolved in DMSO) at the concentrations to be tested with or without the addition of the necrosis inhibitor IM-54 at 5 μM (Calbiochem, Darmstadt, Germany). Cells treated with culture medium without or with DMSO served as controls. The assay was started following an incubation of 24 hours. […] Plates were incubated at 37° C. for 1 hour and measured in a Fluoroskan II (Lab Systems, Helsinki, Finland) with a […]. The intensity of fluorescence indicates the number of viable cells in the wells.
Next it was asked whether the PNs also influence the proliferation of benign cells. To this end, human fibroblasts (FF) and foreskin melanocytes (HEM1) were treated with the same concentrations of 6-PN and 8-PN, and proliferation was assessed using the proliferation assay as described above.

The next data set concerns LOXIMVI melanoma cells. The data set can be described thus: Organotypic human epidermal skin reconstructs, LOXIMVI. Format: cell-based. To be noted: same treatment conditions (100 μM), untreated 100% MIB1 positive. Here is the method: FIG. 11: 6-PN and 8-PN reduce proliferation and invasion of BLM and LOXIMVI melanoma cells in human epidermal skin reconstructs and induce little embryo toxicity. (A) BLM melanoma cells and keratinocytes were seeded on top of a collagen matrix populated by fibroblasts. After 16 days a keratinizing stratified epithelium with a rudimentary corium is formed. […] (B) Similar results were obtained for LOXIMVI melanoma cells under the same treatment conditions. Only nests of dead, MIB1 negative LOXIMVI cells were detected after treatment with the PNs. […]
In this assay, keratinocytes and melanoma cells are seeded on top of a collagen matrix populated by fibroblasts. […] Untreated control BLM cells (depicting 70-80% proliferation, determined by MIB1 immunhistochemistry) had formed a large tumor in the epidermal part of the reconstruct and had invaded the corium (FIG. 11A, upper panel). To determine the amount of proliferating cells, the number of MIB1 positive melanoma cells per power field in the epidermal part of the reconstruct at the epidermal-dermal border was counted (40× magnification, n=5 adjacent fields examined). Further, the number of melanoma cells invading the dermal part of the reconstruct was counted in the same high power fields. In reconstructs with untreated BLM cells, 103±15 MIB1 positive cells and 39±13 invasive cells were counted (FIG. 11A, upper panel). […]

With `CC(C)=CCc1c(O)cc(O)c2c1OC(c1ccc(O)cc1)CC2=O` (centres unmarked) [8-PN, 5,7-Dihydroxy-2-(4-hydroxy-phenyl)-8-(3-methyl-but-2-enyl)-chroman-4-one], the melanocyte proliferation result in data set [1] is listed as “markedly decreased”. Also, the “cell proliferation of LOXIMVI cells (MIB1)” value with LOXIMVI melanoma cells was “completely inhibited”.
